Holding throughout (assay type): cell-based
Data set [1] deals with Influenza virus A/Puerto Rico/8/34 (H1N1). The conditions noted are these: ratio of CC50 to IC50, MDCK cell line.
Another data set deals with Coxsackie virus B3. Kind of data set: Cell protection assay, Coxsackie virus B3 in Vero cells. The conditions noted are these: for IC50: Enterovirus B, B3, Vero, 72 h; for SI (selectivity index): ratio of CC50 to IC50, Coxsackie virus B3, Vero cell line.
Data set [2] can be described thus: Toxicity studies, microtetrazolium test. The conditions noted are these: dog, MDCK cells (ATCC CCL-34).

The record followed here is PMC7547832 (Journal of Fluorine Chemistry, 2020).

Structures are written as SMILES.

For orientation: IC50 means the concentration that gives 50% inhibition. Read a low IC50 as greater potency. By CC50 is commonly meant the concentration at which the toxic effect on the cells reaches its halfway point. Regarding `COC(=O)c1c(-c2ccc(OC)c(OC)c2)oc2c(F)c(F)c(F)c(F)c2c1=O` [Compound 4a, Methyl 5,6,7,8-tetrafluoro-2-(3,4-dimethoxyphenyl)-4-oxo-4H-chromene-3-carboxylate], the “SI (selectivity index)” value in data set [1] came out at 2. The half-inhibitory concentration (IC50) in the data set with Coxsackie virus B3 was greater than 61 µM. Also, the half-maximal cytotoxic concentration (CC50) at 48 h in data set [2] worked out at 109 ± 8 µM.
Regarding `COC(=O)c1c(-c2ccc(OC)c(OC)c2)oc2c(F)c(F)c(F)cc2c1=O` [Compound 5а, Methyl 6,7,8-trifluoro-2-(3,4-dimethoxyphenyl)-4-oxo-4H-chromene-3-carboxylate], in data set [1], the “SI (selectivity index)” value was found to be 16. The 50% inhibitory concentration (IC50) in the data set with Coxsackie virus B3 was found to be 635 ± 42 µM. For the same compound, in data set [2], the midpoint of cytotoxicity, the CC50 at 48 h, lay at 508 ± 32 µM.
The matching figures for `COC(=O)c1c(-c2ccc(OC)c(OC)c2)oc2c(F)c(-n3ccnc3)c(F)c(F)c2c1=O` [Compound 6a, Methyl 5,6,8-trifluoro-2-(3,4-dimethoxyphenyl)-7-(1H-imidazol-1-yl)-4-oxo-4H-chromene-3-carboxylate]: 5, greater than 65 µM and 61 ± 4 µM.
`COC(=O)c1c(-c2ccc(OC)c(OC)c2)oc2c(F)c(-n3ccnc3)c(F)cc2c1=O` [Compound 7а, Methyl 6,8-difluoro-2-(3,4-dimethoxyphenyl)-7-(1H-imidazol-1-yl)-4-oxo-4H-chromene-3-carboxylate]: the concentration for half-maximal inhibition (IC50) in the data set with Coxsackie virus B3 was greater than 226 µM. Moreover, in data set [2], the CC50 at 48 h was greater than 679 µM.
Consider `COC(=O)c1c(-c2ccc(OC)cc2)oc2c(F)c(-n3ccnc3)c(F)c(O)c2c1=O` [Compound 8b, Methyl 6,8-difluoro-5-hydroxy-7-(1H-imidazol-1-yl)-2-(4-methoxyphenyl)-4-oxo-4H-chromene-3-carboxylate], for which the “SI (selectivity index)” value in data set [1] was 16. The half-maximal cytotoxic concentration (CC50) at 48 h in data set [2] turned out to be 629 ± 41 µM.
Turning to `COc1ccc(-c2cc(=O)c3c(F)c(F)c(-n4ccnc4)c(F)c3o2)cc1OC` [Compound 13, 5,6,8-Trifluoro-2-(3,4-dimethoxyphenyl)-7-(1H-imidazol-1-yl)-4H-chromene-4-one], in the data set with Coxsackie virus B3, the midpoint of inhibition, the IC50, lay at 29 ± 4 µM and the “SI (selectivity index)” value was 26. In the data set on Coxsackie virus B3 (Vero cell culture), the “antiviral properties against the Coxsackie virus B3 (in words)” value is listed as “demonstrated antiviral properties against the Coxsackie virus B3”. The compound further returned a half-maximal cytotoxic concentration (CC50) at 48 h in data set [2] greater than 746 µM.
Regarding `NC(=O)c1ncn([C@@H]2O[C@H](CO)[C@@H](O)[C@H]2O)n1` [ribavirin, reference compound], in the data set on Coxsackie virus B3, inhibition was half-maximal at 34 ± 4 µM (IC50) and the “SI (selectivity index)” value is given as greater than 63. In data set [2], this compound yielded a CC50 at 48 h greater than 2130 µM.
